Assay results: patent US9809621B2, “Stable peptide-based PACE4 inhibitors” (SOCPRA SCIENCES SANTÉ ET HUMAINES S.E.C., priority 2011, dated 2017)
Several values for one entry are separate records, joined by “and”; a condition that tells them apart may be missing. Equal values may be shown once. Read-outs that look alike come from different tables or passages of the source. Numbered stars: 1 amine (or outer) side, 2 acyl side, 3 side chain; on linkers, the order of the positions; unused ones are H or OH. Square brackets hold non-standard residues; d marks the D form. Peptide text beside a SMILES is read from it. * marks the point of attachment. X3 = CC(C)C[C@H](N[*:1])c1cn([C@@H](CC(C)C)C(=O)[*:2])nn1; X5 = CC(C)C/C(=C\C[C@H](CC(C)C)N[*:1])C(=O)[*:2]; NH(4-amidinobenzyl) = N=C(N)c1ccc(CN*)cc1; PEG8 = NCCOCCOCCOCCOCCOCCOCCOCCOCCC(=O)O; X4 = N=C(N)NCCCN(CC(N)=O)N*; Nle = CCCC[C@H](N)C(=O)O

Tests used:
[1] = Plasmatic half-life / degradation by plasmatic protease; format: in vitro ADME; settings: plasma, Table 1
Protocol: (§1) Multiple multi-Leu variants described in Table 1 were tested for their stability following incubation with DU145 cells, wherein their cellular stability and plasmatic half-life was measured.
Stabilisation strategy for multi-Leu variants was also assessed in presence of plasmatic protease. 8 variants protected at their N-terminal leucines were tested in order to establish their level of degradation since it is expected that N-terminal degradation will occur in absence of any modifications other than acetylation. Variants tested with azaβ3-leucine at each individual position and “click” bonds between the different leucines of the N-terminal part of the variants were protected against degradation (see FIG. 3 for modifications).

PACE4 = molecular target: T1, PACE4 (Homo sapiens, UniProt P29122); assay: Inhibition constant (Ki) for PACE4; format: biochemical
T1 sequence (P29122 150-969): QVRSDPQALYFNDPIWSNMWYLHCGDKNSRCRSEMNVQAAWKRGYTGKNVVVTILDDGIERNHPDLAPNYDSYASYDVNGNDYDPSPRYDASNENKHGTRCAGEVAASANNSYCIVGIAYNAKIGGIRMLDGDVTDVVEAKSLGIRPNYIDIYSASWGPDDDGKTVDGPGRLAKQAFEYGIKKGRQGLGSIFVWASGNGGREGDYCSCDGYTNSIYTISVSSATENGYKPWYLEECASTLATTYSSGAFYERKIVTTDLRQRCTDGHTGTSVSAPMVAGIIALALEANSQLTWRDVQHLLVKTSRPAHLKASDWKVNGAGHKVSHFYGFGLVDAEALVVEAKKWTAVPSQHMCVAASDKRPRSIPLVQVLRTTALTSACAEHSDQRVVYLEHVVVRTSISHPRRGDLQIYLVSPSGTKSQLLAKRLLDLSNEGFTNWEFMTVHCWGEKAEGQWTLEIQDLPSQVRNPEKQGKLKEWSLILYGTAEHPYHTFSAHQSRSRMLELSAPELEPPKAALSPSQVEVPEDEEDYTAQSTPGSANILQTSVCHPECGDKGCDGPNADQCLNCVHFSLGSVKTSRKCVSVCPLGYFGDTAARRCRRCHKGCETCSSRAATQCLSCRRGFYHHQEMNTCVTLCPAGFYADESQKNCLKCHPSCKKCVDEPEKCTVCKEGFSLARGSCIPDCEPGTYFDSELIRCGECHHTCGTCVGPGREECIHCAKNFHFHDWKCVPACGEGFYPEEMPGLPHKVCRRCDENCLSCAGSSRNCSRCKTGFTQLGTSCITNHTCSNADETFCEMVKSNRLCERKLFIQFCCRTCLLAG

[2] = Stability following incubation with DU145 cells; format: in vitro ADME, human; settings: human, DU145 cells, Table 1, read-out: Stability (% remaining after 48 h)
Protocol: as §1
Consequently, the multi-Leu peptide was further modified by the addition of amino acid analogues and/or with pseudo peptide bounds which increase the protection of the modified peptides from peptidase and protease degradation. Gains in stability were also measured in vitro in tumoral prostatic human cells (DU145). Increase in stability of the variants was also measured in vivo (FIG. 4).

DU145 cells = settings: MTT, FIG. 1C, FIG. 7
[3] = Table 1, read-out: Ki for PACE4

Molecule	half-life [1] [h]	Ki (PACE4; Ki for PACE4, Table 1) [nM]	remaining at 48 h [2] [%]	Ki (PACE4; [3])	Anti-proliferative activity in DU145 cells (in words) (DU145 cells)
CC(=O)N[C@H](C/C=C(\CC(C)C)C(=O)N[C@@H](CC(C)C)C(=O)N[C@@H](CC(C)C)C(=O)N[C@@H](CCCNC(=N)N)C(=O)N[C@H](C(=O)N[C@@H](CCCCN)C(=O)N[C@@H](CCCNC(=N)N)C(N)=O)C(C)C)CC(C)C [ML[c-ene]^P8-P7, Ac-L═LLLRVKR-NH2] (Ac-[X5]LLRVKR-NH2)	~7.4				
CCCC[C@H](NC(C)=O)C(=O)N[C@@H](CCCC)C(=O)N[C@@H](CC(C)C)C(=O)N[C@@H](CCCC)C(=O)N[C@@H](CCCN=C(N)N)C(=O)N[C@H](C(=O)N[C@@H](CCCCN)C(=O)N[C@@H](CCCN=C(N)N)C(N)=O)C(C)C [ML[Nle]^P5-6-8, Ac-[Nle][Nle]L[Nle]RVKR-NH2]		85	41		
CC(=O)NN(CC(=O)N[C@@H](CC(C)C)C(=O)N[C@@H](CC(C)C)C(=O)N[C@@H](CC(C)C)C(=O)N[C@@H](CCCNC(=N)N)C(=O)N[C@H](C(=O)N[C@@H](CCCCN)C(=O)N[C@@H](CCCNC(=N)N)C(N)=O)C(C)C)CC(C)C [ML[Azaβ3L]^P8]	2.5 ± 0.1		83		
CCCC[C@H](NC(=O)[C@H](CC(C)C)NC(=O)[C@H](CC(C)C)NC(=O)[C@H](CC(C)C)NC(C)=O)C(=O)N[C@@H](CCCN=C(N)N)C(=O)N[C@H](C(=O)N[C@@H](CCCCN)C(=O)N[C@@H](CCCN=C(N)N)C(N)=O)C(C)C [ML[Nle]^P5] (Ac-LLL[Nle]RVKR-NH2)				17 nM and 37 nM	
CC(=O)N[C@@H](CC(C)C)C(=O)N[C@@H](CC(C)C)C(=O)N[C@@H](CC(C)C)C(=O)N[C@@H](CC(C)C)C(=O)N[C@@H](CCCNC(=N)N)C(=O)N[C@H](C(=O)N[C@@H](CCCCN)C(=O)NCc1ccc(C(=N)N)cc1)C(C)C [ML-[AMBA]^P1, Ac-LLLLRVK-[AMBA]] (Ac-LLLLRVK-{NH(4-amidinobenzyl)})					IC50 lower than the IC50 of the multi-Leu control
CC(=O)N[C@@H](CC(C)C)c1cn([C@@H](CC(C)C)C(=O)N[C@@H](CC(C)C)C(=O)N[C@@H](CC(C)C)C(=O)N[C@@H](CCCNC(=N)N)C(=O)N[C@H](C(=O)N[C@@H](CCCCN)C(=O)N[C@@H](CCCNC(=N)N)C(N)=O)C(C)C)nn1 [ML[click]^P8-P7, Ac-L[click]LLLRVKR-NH2] (Ac-[X3]LLRVKR-NH2)	4 ± 0.5		52	37 nM	
CC(=O)NCCOCCOCCOCCOCCOCCOCCOCCOCCC(=O)N[C@@H](CC(C)C)C(=O)N[C@@H](CC(C)C)C(=O)N[C@@H](CC(C)C)C(=O)N[C@@H](CC(C)C)C(=O)N[C@@H](CCCNC(=N)N)C(=O)N[C@H](C(=O)N[C@@H](CCCCN)C(=O)N[C@@H](CCCNC(=N)N)C(N)=O)C(C)C [[H2N-PEG8]-ML, Ac-[HN-PEG8]-LLLLRVKR-NH2] (Ac-[PEG8]LLLLRVKR-NH2)	1.3 ± 0.2		64		
CC(=O)N[C@@H](CC(C)C)C(=O)N[C@@H](CC(C)C)C(=O)N[C@@H](CC(C)C)C(=O)N[C@@H](CC(C)C)C(=O)N[C@@H](CCCNC(=N)N)C(=O)N[C@H](C(=O)N[C@@H](CCCCN)C(=O)NN(CCCNC(=N)N)CC(N)=O)C(C)C [ML[Azaβ3R]^P1, Ac-LLLLRVK[Azaβ3R]-NH2] (Ac-LLLLRVK-X4)	5.39 ± 0.08			460 nM	
CC(=O)N[C@@H](CC(C)C)C(=O)N[C@@H](CC(C)C)c1cn([C@@H](CC(C)C)C(=O)N[C@@H](CC(C)C)C(=O)N[C@@H](CCCNC(=N)N)C(=O)N[C@H](C(=O)N[C@@H](CCCCN)C(=O)N[C@@H](CCCNC(=N)N)C(N)=O)C(C)C)nn1 [ML[click]^P7-P6, Ac-LL[click]LLRVKR-NH2] (Ac-L[X3]LRVKR-NH2)	1 ± 0.2			600 nM	
CCCC[C@H](NC(C)=O)C(=O)N[C@@H](CCCC)C(=O)N[C@@H](CCCC)C(=O)N[C@@H](CCCC)C(=O)N[C@@H](CCCNC(=N)N)C(=O)N[C@H](C(=O)N[C@@H](CCCCN)C(N)=O)C(C)C [ML[Nleu]^P5-6-7-8, Ac-[Nle][Nle][Nle][Nle]RVK-NH2] (Ac-[Nle][Nle][Nle][Nle]RVK-NH2)		344			
Ac-LLLSRVKR-NH2 [ML[Ser]-P5, Ac-LLLSRVKR-NH2]	2.32 ± 0.04	11	88		
